Measured values reported in article PMC9115881, “Penicillin Derivatives Inhibit the SARS-CoV-2 Main Protease by Reaction with Its Nucleophilic Cysteine” (Journal of Medicinal Chemistry, 2022).
Like-named read-outs stand apart in the source and are kept apart here.

Experiments:
SARS-CoV-2 M^pro [1] = molecular target: T1, SARS-CoV-2 M^pro (Severe acute respiratory syndrome coronavirus 2, UniProt P0DTD1); experiment: biochemical; format: biochemical; conditions: for M^pro inhibition, result in words: SPE-MS inhibition assay
SARS-CoV-2 M^pro [2] = molecular target: T1, SARS-CoV-2 M^pro; experiment: Protein-observed M^pro assay (SPE-MS), covalent modification; format: binding; conditions: M^pro 2.0 μM, inhibitor 11 or 33 μM, 45 min
Procedure: Selected compounds were tested for reaction with M^pro using protein-observed MS to inform on their mechanism of inhibition (Figure 2). Initially, M^pro was incubated with a ∼6-fold excess of the penicillin sulfone ester for 45 min and then analyzed by MS. […] When the inhibitor concentration was increased to ∼17-fold to account for the possibility of modifying all 12 M^pro cysteine or other residues, only low levels of a second covalent M^pro modification by the inhibitors were observed (Figure 2A–C). No evidence for fragmentation of the inhibitors once bound to M^pro was accrued.
Solutions of the inhibitors (100% DMSO) were dry-dispensed across 384-well polypropylene assay plates (Greiner) (for 11 or 33 μM top concentrations) using an ECHO 550 acoustic dispenser (Labcyte). DMSO was used as a negative control. Each reaction was performed in technical duplicates. The enzyme mixture (50 μL/well), containing M^pro (2.0 μM) in buffer (20 mM HEPES, pH 7.5), was dispensed across the penicillin-containing 384-well assay plates with a multidrop dispenser (Thermo Fischer Scientific). The reaction mixture was incubated for 45 min at 20 °C under an ambient atmosphere prior to analysis by SPE-MS.
MS analyses were performed using a RapidFire RF 365 high-throughput sampling robot (Agilent) attached to an iFunnel Agilent 6550 accurate mass Q-TOF mass spectrometer using a C4 cartridge and the same parameters as described above, with the exception of the gas temperature that was reduced to 225 °C. Protein spectra were deconvoluted for the m/z range 850–1350 Da, with a resolution of 2 Da and with a 10–60 kDa cutoff using the MaxEnt1 function in Agilent MassHunter Version 7. The deconvoluted files were extracted as csv files, sorted using Enthought Canopy GUI, and normalized and plotted using GraphPad Prism 9.

[3] = Table 1, M^pro […], 37mer substrate 2.0 μM, 15 min preincubation, mean ± SD, n ≥ 2, read-out: IC50
[4] = read-out: IC50 [μM] using SPE-MS (37mer peptide)
[5] = Table 2, M^pro […], 37mer substrate 2.0 μM, mean ± SD, n ≥ 2, read-out: IC50
[6] = Table 3, M^pro […], 37mer substrate 2.0 μM, mean ± SD, n ≥ 2, read-out: IC50
[7] = Table S2, M^pro 0.15 μM, 37mer substrate peptide 2.0 μM, mean ± SD, n ≥ 2, read-out: IC50 [μM] using SPE-MS (37mer peptide)

CC1(C)S[C@@H]2[C@H](NC(=O)COc3ccccc3)C(=O)N2[C@H]1C(=O)O [Compound 12, penicillin V, reference compound]
IC50 (SARS-CoV-2 M^pro [1]; [3]): > 50 µM

CC1(C)[C@H](C(=O)OCc2ccc([N+](=O)[O-])cc2)N2C(=O)C(Br)(Br)[C@H]2S1(=O)=O [Compound 31, 6,6-dibromopenicillanic acid sulfone para-nitrobenzyl ester]
covalent modification of M^pro by protein-observed MS (SARS-CoV-2 M^pro [2]): initial covalent M^pro binding is followed by rapid subsequent reaction to give new species

CC1(C)S[C@@H]2[C@H](NC(=O)COc3ccccc3)C(=O)N2[C@H]1C(=O)OCc1ccccc1F [Compound 19a]
IC50 (SARS-CoV-2 M^pro [1]; [4]): 47.7 ± 6.8 µM

CC1(C)[C@H](C(=O)OCc2ccccc2)N2C(=O)C[C@H]2S1(=O)=O [Compound 34]
IC50 (SARS-CoV-2 M^pro [1]; Table 4, M^pro […], 37mer substrate 2.0 μM, mean ± SD, n ≥ 2, read-out: IC50): > 50 µM

COC(=O)[C@@H]1N2C(=O)[C@@H](NC(=O)COc3ccccc3)[C@H]2S(=O)(=O)C1(C)C [Compound 20o]
IC50 (SARS-CoV-2 M^pro [1]; [5]): 7.9 ± 1.4 µM

CC1(C)[C@H](C(=O)OCc2ccccc2F)N2C(=O)[C@@H](NC(=O)COc3ccccc3)[C@H]2S1(=O)=O [Compound 20a]
covalent modification of M^pro by protein-observed MS (SARS-CoV-2 M^pro [2]): covalent reaction with Cys145
IC50 (SARS-CoV-2 M^pro [1]; [5]): 5.8 ± 2 µM

CC1(C)[C@H](C(=O)OCc2ccc([N+](=O)[O-])cc2)N2C(=O)[C@@H](NC(=O)COc3ccccc3)[C@H]2S1(=O)=O [Compound 20j, penicillin V sulfone para-nitrobenzyl ester]
M^pro inhibition, result in words (SARS-CoV-2 M^pro [1]): do not, at least efficiently, inhibit M^pro
IC50 (SARS-CoV-2 M^pro [1]; [5]): > 50 µM

CCOC(=O)[C@@H]1N2C(=O)[C@@H](NC(=O)COc3ccccc3)[C@H]2S(=O)(=O)C1(C)C [Compound 20p]
covalent modification of M^pro by protein-observed MS (SARS-CoV-2 M^pro [2]): covalent reaction with Cys145
IC50 (SARS-CoV-2 M^pro [1]; [5]): 5.2 ± 0.6 µM

CC1(C)S[C@@H]2[C@H](NC(=O)COc3ccccc3)C(=O)N2[C@H]1C(=O)OCc1ccccc1 [Compound 13]
IC50 (SARS-CoV-2 M^pro [1]; [3]): > 50 µM

CC(Oc1ccccc1)C(=O)N[C@@H]1C(=O)N2[C@@H](C(=O)OCc3ccccc3)C(C)(C)S(=O)(=O)[C@H]12 (some centres unmarked) [Compound 25i]
M^pro inhibition, result in words (SARS-CoV-2 M^pro [1]): substantially reduced inhibition
IC50 (SARS-CoV-2 M^pro [1]; [6]): > 50 µM

CC1(C)[C@H](C(=O)OCc2ccc3ccccc3c2)N2C(=O)[C@@H](NC(=O)COc3ccccc3)[C@H]2S1(=O)=O [Compound 20l]
M^pro inhibition, result in words (SARS-CoV-2 M^pro [1]): do not, at least efficiently, inhibit M^pro
IC50 (SARS-CoV-2 M^pro [1]; [5]): > 50 µM

CC1(C)[C@H](C(=O)OCc2ccc([N+](=O)[O-])cc2)N2C(=O)C(Br)(Br)[C@H]2[S+]1[O-] (stereo partly drawn) [Compound 32, 6,6-dibromopenicillaic acid (R)-sulfoxide para-nitrobenzyl ester]
covalent modification of M^pro by protein-observed MS (SARS-CoV-2 M^pro [2]): initial covalent M^pro binding is followed by rapid subsequent reaction to give new species
IC50 (SARS-CoV-2 M^pro [1]; Table 4, M^pro 0.15 μM, 37mer substrate 2.0 μM, mean ± SD, n ≥ 2, read-out: IC50): ~0.6 µM

CC1(C)[C@H](C(=O)OCc2cccc(F)c2)N2C(=O)[C@@H](NC(=O)COc3ccccc3)[C@H]2S1(=O)=O [Compound 20b]
IC50 (SARS-CoV-2 M^pro [1]; [5]): 9.2 ± 3.7 µM

CC1(C)[C@H](C(=O)OCc2ccccc2)N2C(=O)[C@@H](NC(=O)COc3ccccc3)C[C@H]2S1(=O)=O [Compound 17]
covalent modification of M^pro by protein-observed MS (SARS-CoV-2 M^pro [2]): appears to inhibit M^pro via a different mechanism

CC1(C)S[C@@H]2[C@H](NC(=O)COc3ccccc3)C(=O)N2[C@H]1C(=O)OCc1ccc(F)cc1F [Compound 19e]
IC50 (SARS-CoV-2 M^pro [1]; [7]): > 50 µM

CC1(C)[C@H](C(=O)OCC#N)N2C(=O)[C@@H](NC(=O)COc3ccccc3)[C@H]2S1(=O)=O [Compound 20r]
IC50 (SARS-CoV-2 M^pro [1]; [5]): 9.7 ± 3.3 µM

COc1ccc(COC(=O)[C@@H]2N3C(=O)[C@@H](NC(=O)COc4ccccc4)[C@H]3S(=O)(=O)C2(C)C)cc1 [Compound 20k]
M^pro inhibition, result in words (SARS-CoV-2 M^pro [1]): do not, at least efficiently, inhibit M^pro
IC50 (SARS-CoV-2 M^pro [1]; [5]): 31.1 ± 13.9 µM

CC1(C)[C@H](C(=O)OCc2ccccc2)N2C(=O)[C@@H](NC(=O)COc3c(F)c(F)c(F)c(F)c3F)[C@H]2S1(=O)=O [Compound 25h]
M^pro inhibition, result in words (SARS-CoV-2 M^pro [1]): did not alter M^pro inhibition substantially
IC50 (SARS-CoV-2 M^pro [1]; [6]): 5.3 ± 3.3 µM

CC1(C)[C@H](C(=O)OCc2cc(C(F)(F)F)cc(C(F)(F)F)c2)N2C(=O)[C@@H](NC(=O)COc3ccccc3)[C@H]2S1(=O)=O [Compound 20h]
M^pro inhibition, result in words (SARS-CoV-2 M^pro [1]): inhibited M^pro
IC50 (SARS-CoV-2 M^pro [1]; [5]): 35.3 ± 2.2 µM

CC1(C)[C@H](C(=O)OCc2cccc([N+](=O)[O-])c2)N2C(=O)[C@@H](NC(=O)COc3ccccc3)[C@H]2S1(=O)=O [Compound 20i]
M^pro inhibition, result in words (SARS-CoV-2 M^pro [1]): inhibited M^pro
IC50 (SARS-CoV-2 M^pro [1]; [5]): 13.3 ± 5.3 µM

CC1(C)S[C@@H]2[C@H](NC(=O)COc3ccccc3)C(=O)N2[C@H]1C(=O)OCc1cc(F)cc(F)c1 [Compound 19d]
IC50 (SARS-CoV-2 M^pro [1]; [7]): > 50 µM

CC1(C)[C@H](C(=O)OCc2ccc(F)cc2)N2C(=O)[C@@H](NC(=O)COc3ccccc3)[C@H]2S1(=O)=O [Compound 20c]
covalent modification of M^pro by protein-observed MS (SARS-CoV-2 M^pro [2]): covalent reaction with Cys145
IC50 (SARS-CoV-2 M^pro [1]; [5]): 7.4 ± 2.3 µM

CC1(C)[C@H](C(=O)OCc2cc(F)c(F)c(F)c2)N2C(=O)[C@@H](NC(=O)COc3ccccc3)[C@H]2S1(=O)=O [Compound 20f]
IC50 (SARS-CoV-2 M^pro [1]; [5]): > 50 µM

CC1(C)[C@H](C(=O)OCc2ccccc2)N2C(=O)[C@@H](NC(=O)CCc3ccccc3)[C@H]2S1(=O)=O [Compound 25b]
covalent modification of M^pro by protein-observed MS (SARS-CoV-2 M^pro [2]): do not covalently react with Cys145
IC50 (SARS-CoV-2 M^pro [1]; [6]): 45.7 ± 0.9 µM

CC1(C)[C@H](C(=O)OCc2ccccc2)N2C(=O)[C@@H](NC(=O)CNC(=O)c3ccccc3)[C@H]2S1(=O)=O [Compound 25d]
IC50 (SARS-CoV-2 M^pro [1]; [6]): > 50 µM

CC1(C)S[C@@H]2[C@H](NC(=O)COc3ccccc3)C(=O)N2[C@H]1C(=O)OCc1ccc(F)cc1 [Compound 19c]
IC50 (SARS-CoV-2 M^pro [1]; [4]): > 50 µM

CC1(C)[C@H](C(=O)OCc2ccccc2)N2C(=O)[C@@H](NC(=O)CNC(=O)OCc3ccccc3)[C@H]2S1(=O)=O [Compound 25e]
IC50 (SARS-CoV-2 M^pro [1]; [6]): > 50 µM

COc1ccc(COC(=O)[C@@H]2N3C(=O)[C@@H](NC(=O)COc4ccccc4)[C@H]3SC2(C)C)cc1 [Compound 19k]
IC50 (SARS-CoV-2 M^pro [1]; [7]): 45.8 ± 11 µM

O=c1[nH]sc2ccccc12 [BIT, benzoisothiazolinone, reference compound]
covalent modification of M^pro by protein-observed MS (SARS-CoV-2 M^pro [2]): non-selectively undergoes covalent

CC(Oc1ccccc1)C(=O)N[C@@H]1C(=O)N2[C@@H](C(=O)OCc3ccc(F)cc3)C(C)(C)S(=O)(=O)[C@H]12 (some centres unmarked) [Compound 25j]
M^pro inhibition, result in words (SARS-CoV-2 M^pro [1]): substantially reduced inhibition
IC50 (SARS-CoV-2 M^pro [1]; [6]): > 50 µM

CC(C)C[C@H](NC(=O)OCc1ccccc1)C(=O)N[C@@H]1C(=O)N2[C@@H](C(=O)OCc3ccccc3)C(C)(C)S(=O)(=O)[C@H]12 [Compound 25f]
IC50 (SARS-CoV-2 M^pro [1]; [6]): > 50 µM

CC1(C)S[C@@H]2[C@H](NC(=O)COc3ccccc3)C(=O)N2[C@H]1C(=O)OCc1c(F)cc(F)cc1F [Compound 19g]
IC50 (SARS-CoV-2 M^pro [1]; [7]): > 50 µM

CC1(C)[C@H](C(=O)OCc2ccccc2)N2C(=O)[C@@H](NC(=O)COC3CCCCC3)[C@H]2S1(=O)=O [Compound 25m]
covalent modification of M^pro by protein-observed MS (SARS-CoV-2 M^pro [2]): covalent reaction with Cys145

CC1(C)[C@H](C(=O)OCc2ccc(C(F)(F)F)o2)N2C(=O)[C@@H](NC(=O)COc3ccccc3)[C@H]2S1(=O)=O [Compound 20m]
M^pro inhibition, result in words (SARS-CoV-2 M^pro [1]): inhibit M^pro, albeit with slightly reduced potency compared to 10
IC50 (SARS-CoV-2 M^pro [1]; [5]): 10.2 ± 2.2 µM

Cc1cc(COC(=O)[C@@H]2N3C(=O)[C@@H](NC(=O)COc4ccccc4)[C@H]3S(=O)(=O)C2(C)C)no1 [Compound 20n]
M^pro inhibition, result in words (SARS-CoV-2 M^pro [1]): inhibit M^pro, albeit with slightly reduced potency compared to 10
IC50 (SARS-CoV-2 M^pro [1]; Table 2, M^pro 0.15 μM, 37mer substrate 2.0 μM, mean ± SD, n ≥ 2, read-out: IC50): 9 ± 1.3 µM
